According to article PMC5063900, “A phase 1 study of the safety, tolerability, pharmacokinetics, and pharmacodynamics of TAK-063, a selective PDE10A inhibitor” (Psychopharmacology, 2016):

Test: CNS Vital Signs (CNSVS) computerized cognition battery
Format: in vivo, human
Conditions: fasting
Method: Cognitive flexibility, attention, executive function, memory, reasoning, motor control, psychomotor speed, reaction time, and information processing speed were assessed predose and at 2 and 6 h following TAK-063 treatment using the CNSVS computerized cognition battery. The CNSVS cognition battery is a well-validated, sensitive measure and included the following tests: verbal and visual memory (VBM and VIM) tests, finger-tapping test, symbol digit coding test, Stroop test, shifting attention test, the nonverbal reasoning test, and the 4-part continuous performance test (Gualtieri and Johnson [2006]). Standardized domain scores for cognitive flexibility, composite memory, executive functioning, processing speed, psychomotor speed, reaction time, reasoning, sustained attention, verbal memory, visual memory, and working memory were reported. In all domains, a decrease in the standardized domain score is indicative of impairment.
All statistical analyses were generated using SAS Version 9.2 (SAS, Cary, NC, USA). The PK parameters were derived using non-compartmental methods with WinNonlin Enterprise Version 6.3 (Pharsight Corp., Mountain View, CA, USA). Frequency or descriptive statistics were used for summary of data. Where indicated, percent coefficient of variation was included in the summary of continuous data. All statistical tests were 2-tailed at α = 0.05 level for significance unless otherwise stated. A power model was used to evaluate dose proportionality by race for fasted subjects; in the event of no observed race effect, dose proportionality was assessed for all subjects. To evaluate the food effect, a paired t test was performed on T max and natural log-transformed C max, and AUCs. An ANCOVA model with baseline scores and race as covariates was used to assess the effects of TAK-063 on CNSVS domain scores.

With COc1cn(-c2ccc(-n3cccn3)cc2F)nc(-c2ccnn2-c2ccccc2)c1=O [TAK-063] the “Cognitive flexibility domain score, Difference (TAK-063 LS mean - placebo LS mean, change from baseline)” value (2 h postdose, 3 mg) was 1.3, the “Composite memory domain score, Difference (TAK-063 LS mean - placebo LS mean, change from baseline)” value (2 h postdose, 3 mg) was -7.9 and the “Executive functioning domain score, Difference (TAK-063 LS mean - placebo LS mean, change from baseline)” value (2 h postdose, 3 mg) was 0.4. The “Processing speed domain score, Difference (TAK-063 LS mean - placebo LS mean, change from baseline)” value (2 h postdose, 3 mg) was 2.2, the “Psychomotor speed domain score, Difference (TAK-063 LS mean - placebo LS mean, change from baseline)” value (2 h postdose, 3 mg) was -1.5 and the “Reaction time domain score, Difference (TAK-063 LS mean - placebo LS mean, change from baseline)” value (2 h postdose, 3 mg) was 4.1. For the same molecule, the “Reasoning domain score, Difference (TAK-063 LS mean - placebo LS mean, change from baseline)” value (2 h postdose, 3 mg) was 5.7, the “Sustained attention domain score, Difference (TAK-063 LS mean - placebo LS mean, change from baseline)” value (2 h postdose, 3 mg) was 4.6 and the “Verbal memory domain score, Difference (TAK-063 LS mean - placebo LS mean, change from baseline)” value (2 h postdose, 3 mg) was 0.9. The “Visual memory domain score, Difference (TAK-063 LS mean - placebo LS mean, change from baseline)” value (2 h postdose, 3 mg) was -10.3, the “Working memory domain score, Difference (TAK-063 LS mean - placebo LS mean, change from baseline)” value (2 h postdose, 3 mg) was 5.3 and the “Cognitive flexibility domain score, Difference (TAK-063 LS mean - placebo LS mean, change from baseline)” value (2 h postdose, 10 mg) was -3.1. For the same molecule, the “Composite memory domain score, Difference (TAK-063 LS mean - placebo LS mean, change from baseline)” value (2 h postdose, 10 mg) was -5.2, the “Executive functioning domain score, Difference (TAK-063 LS mean - placebo LS mean, change from baseline)” value (2 h postdose, 10 mg) was -2.7 and the “Processing speed domain score, Difference (TAK-063 LS mean - placebo LS mean, change from baseline)” value (2 h postdose, 10 mg) was 0.7. The “Psychomotor speed domain score, Difference (TAK-063 LS mean - placebo LS mean, change from baseline)” value (2 h postdose, 10 mg) was -8.5, the “Reaction time domain score, Difference (TAK-063 LS mean - placebo LS mean, change from baseline)” value (2 h postdose, 10 mg) was -2.3 and the “Reasoning domain score, Difference (TAK-063 LS mean - placebo LS mean, change from baseline)” value (2 h postdose, 10 mg) was 10.8. For the same molecule, the “Sustained attention domain score, Difference (TAK-063 LS mean - placebo LS mean, change from baseline)” value (2 h postdose, 10 mg) was 0.7, the “Verbal memory domain score, Difference (TAK-063 LS mean - placebo LS mean, change from baseline)” value (2 h postdose, 10 mg) was -4.0 and the “Visual memory domain score, Difference (TAK-063 LS mean - placebo LS mean, change from baseline)” value (2 h postdose, 10 mg) was -3.3. The “Working memory domain score, Difference (TAK-063 LS mean - placebo LS mean, change from baseline)” value (2 h postdose, 10 mg) was 1.1, the “Cognitive flexibility domain score, Difference (TAK-063 LS mean - placebo LS mean, change from baseline)” value (2 h postdose, 30 mg) was 0.2 and the “Composite memory domain score, Difference (TAK-063 LS mean - placebo LS mean, change from baseline)” value (2 h postdose, 30 mg) was 2.8. The “Executive functioning domain score, Difference (TAK-063 LS mean - placebo LS mean, change from baseline)” value (2 h postdose, 30 mg) was 0.5, the “Processing speed domain score, Difference (TAK-063 LS mean - placebo LS mean, change from baseline)” value (2 h postdose, 30 mg) was 4.3 and the “Psychomotor speed domain score, Difference (TAK-063 LS mean - placebo LS mean, change from baseline)” value (2 h postdose, 30 mg) was -1.7. For the same molecule, the “Reaction time domain score, Difference (TAK-063 LS mean - placebo LS mean, change from baseline)” value (2 h postdose, 30 mg) was 3.1, the “Reasoning domain score, Difference (TAK-063 LS mean - placebo LS mean, change from baseline)” value (2 h postdose, 30 mg) was 6.4 and the “Sustained attention domain score, Difference (TAK-063 LS mean - placebo LS mean, change from baseline)” value (2 h postdose, 30 mg) was 10.3. For the same molecule, the “Verbal memory domain score, Difference (TAK-063 LS mean - placebo LS mean, change from baseline)” value (2 h postdose, 30 mg) was 12.4, the “Visual memory domain score, Difference (TAK-063 LS mean - placebo LS mean, change from baseline)” value (2 h postdose, 30 mg) was -5.2 and the “Working memory domain score, Difference (TAK-063 LS mean - placebo LS mean, change from baseline)” value (2 h postdose, 30 mg) was 6.5. The “Cognitive flexibility domain score, Difference (TAK-063 LS mean - placebo LS mean, change from baseline)” value (2 h postdose, 100 mg) was -20.2, the “Composite memory domain score, Difference (TAK-063 LS mean - placebo LS mean, change from baseline)” value (2 h postdose, 100 mg) was -24.1 and the “Executive functioning domain score, Difference (TAK-063 LS mean - placebo LS mean, change from baseline)” value (2 h postdose, 100 mg) was -17.8. The “Processing speed domain score, Difference (TAK-063 LS mean - placebo LS mean, change from baseline)” value (2 h postdose, 100 mg) was -6.1, the “Psychomotor speed domain score, Difference (TAK-063 LS mean - placebo LS mean, change from baseline)” value (2 h postdose, 100 mg) was -15.2 and the “Reaction time domain score, Difference (TAK-063 LS mean - placebo LS mean, change from baseline)” value (2 h postdose, 100 mg) was -15.6. The “Reasoning domain score, Difference (TAK-063 LS mean - placebo LS mean, change from baseline)” value (2 h postdose, 100 mg) was 4.6, the “Sustained attention domain score, Difference (TAK-063 LS mean - placebo LS mean, change from baseline)” value (2 h postdose, 100 mg) was -7.0 and the “Verbal memory domain score, Difference (TAK-063 LS mean - placebo LS mean, change from baseline)” value (2 h postdose, 100 mg) was -24.0. The “Visual memory domain score, Difference (TAK-063 LS mean - placebo LS mean, change from baseline)” value (2 h postdose, 100 mg) was -15.4, the “Working memory domain score, Difference (TAK-063 LS mean - placebo LS mean, change from baseline)” value (2 h postdose, 100 mg) was -3.8 and the “Cognitive flexibility domain score, Difference (TAK-063 LS mean - placebo LS mean, change from baseline)” value (2 h postdose, 300 mg) was -30.9. The “Composite memory domain score, Difference (TAK-063 LS mean - placebo LS mean, change from baseline)” value (2 h postdose, 300 mg) was -26.9, the “Executive functioning domain score, Difference (TAK-063 LS mean - placebo LS mean, change from baseline)” value (2 h postdose, 300 mg) was -29.0 and the “Processing speed domain score, Difference (TAK-063 LS mean - placebo LS mean, change from baseline)” value (2 h postdose, 300 mg) was -17.6. The “Psychomotor speed domain score, Difference (TAK-063 LS mean - placebo LS mean, change from baseline)” value (2 h postdose, 300 mg) was -18.0, the “Reaction time domain score, Difference (TAK-063 LS mean - placebo LS mean, change from baseline)” value (2 h postdose, 300 mg) was -10.3 and the “Reasoning domain score, Difference (TAK-063 LS mean - placebo LS mean, change from baseline)” value (2 h postdose, 300 mg) was 0.5. The “Sustained attention domain score, Difference (TAK-063 LS mean - placebo LS mean, change from baseline)” value (2 h postdose, 300 mg) was -9.0, the “Verbal memory domain score, Difference (TAK-063 LS mean - placebo LS mean, change from baseline)” value (2 h postdose, 300 mg) was -26.7 and the “Visual memory domain score, Difference (TAK-063 LS mean - placebo LS mean, change from baseline)” value (2 h postdose, 300 mg) was -17.2. The “Working memory domain score, Difference (TAK-063 LS mean - placebo LS mean, change from baseline)” value (2 h postdose, 300 mg) was -3.1, the “Cognitive flexibility domain score, Difference (TAK-063 LS mean - placebo LS mean, change from baseline)” value (2 h postdose, 1000 mg) was -19.6 and the “Composite memory domain score, Difference (TAK-063 LS mean - placebo LS mean, change from baseline)” value (2 h postdose, 1000 mg) was -16.6. For the same molecule, the “Executive functioning domain score, Difference (TAK-063 LS mean - placebo LS mean, change from baseline)” value (2 h postdose, 1000 mg) was -16.6, the “Processing speed domain score, Difference (TAK-063 LS mean - placebo LS mean, change from baseline)” value (2 h postdose, 1000 mg) was -17.9 and the “Psychomotor speed domain score, Difference (TAK-063 LS mean - placebo LS mean, change from baseline)” value (2 h postdose, 1000 mg) was -18.7. The “Reaction time domain score, Difference (TAK-063 LS mean - placebo LS mean, change from baseline)” value (2 h postdose, 1000 mg) was -7.1, the “Reasoning domain score, Difference (TAK-063 LS mean - placebo LS mean, change from baseline)” value (2 h postdose, 1000 mg) was -0.5 and the “Sustained attention domain score, Difference (TAK-063 LS mean - placebo LS mean, change from baseline)” value (2 h postdose, 1000 mg) was -5.0. The “Verbal memory domain score, Difference (TAK-063 LS mean - placebo LS mean, change from baseline)” value (2 h postdose, 1000 mg) was -10.0, the “Visual memory domain score, Difference (TAK-063 LS mean - placebo LS mean, change from baseline)” value (2 h postdose, 1000 mg) was -14.5 and the “Working memory domain score, Difference (TAK-063 LS mean - placebo LS mean, change from baseline)” value (2 h postdose, 1000 mg) was -2.5. The “Cognitive flexibility domain score, Difference (TAK-063 LS mean - placebo LS mean, change from baseline)” value (6 h postdose, 3 mg) was 2.9.
